Read-outs that look alike come from different tables or passages of the source. Where a SMILES comes first, the peptide text is derived from it. [ ]: non-standard residue; d: D form. The star is where a group is joined. ξ: configuration not given here. Dolaproine = CO[C@@H]([C@@H]1CCCN1)[C@@H](C)C(=O)O; X1 = C=CCOC(=O)Nc1ccc(C(OC(=O)*)C(=O)NCC)cc1; Dil = CC[C@H](C)[C@H](NC)[C@@H](CC(=O)O)OC; X2 = C[C@@H](N*)[C@@H](O)c1ccccc1; NMeV = CN[C@H](C(=O)O)C(C)C; ξV = CC(C)C(N)C(=O)O
Experiments:
[1] = tested on: HT1080 fibrosarcoma cancer cells; test: Resazurin-based cytotoxicity assay, 72 h; conditions: for turn-on capacity in cytotoxicity: with vs without Pd-NP
Procedure: (§2) In vitro NP characterization: 5,000 cells per well were added to 96-well plates for cytotoxicity assessment; cells were treated after overnight seeding with compound or the appropriate buffer control (drug-free PLGA-PEG NP), and assessed for viability 72 h later using PrestoBlue (Life Technologies) following the manufacturer's protocol.

[2] = cited from earlier work
[3] = Pd-mediated uncaging of fluorogenic coumarin substrate (reaction kinetics and catalyst performance); conditions: PdCl2(TFP)2, HBSS
Procedure: Reaction kinetics and catalyst performance. Alloc-SIL-dPEG4-AMC (8) was reacted at a concentration of 5 μM with palladium catalyst (Pd-1, Pd-2, Pd-3, Pd-4) at a concentration of 10 μM in HBSS and MEM (see FIG. 8). Alloc2R110 was reacted at a concentration of 5 μM with Pd-1 at a concentration of 10 μM in HBSS as described previously.2 Fluorescence was monitored for 10 h at room temperature using 96 well plates and a Tecan Safire 2 fluorescence plate reader.

[4] = In vitro NP prodrug release in PBS; format: physicochemical; conditions: over 72 h at 37° C. in PBS
Procedure: Transmission electron microscopy (TEM) was performed in the Microscopy Core of the Center for Systems Biology/Program in Membrane Biology (MGH). […] Excess solution was blotted, grids were stained with phosphotungstic acid, and then blotted, dried and imaged. In vitro NP prodrug release was performed by incubating in PBS at 37° C., separating NPs using a 30 kDa molecular weight cutoff filter (Millipore Amicon) after 72 h, and measuring flow-through for drug content by absorbance (Nanodrop). NP was dissolved in DMF and also measured for drug content by absorbance. Pd-NP, Alloc2R110 and its nanoformulation, and all Pd compounds were synthesized and characterized as previously described.^5

HT1080 cancer cells = test: Subcellular drug accumulation by intrinsic anthracycline fluorescence microscopy; format: cell-based, human; conditions: HT1080, 24 h
Procedure: FIGS. 3A-3D. […] Co-localization was determined by tabulating the fraction of NP-positive puncta (vesicles) in cells that contained high RFP expression or not (labeled red and gray, respectively; n>10 cells, bars are mean±std. dev.). b) Following 30 min pre-treatment with the indicated compounds, HT1080 cells were treated with the same NP as in a, and imaged 3 h later (n>6 biological replicates; mean±s.e.m.). c-d) HT1080 tumor cells were treated with C16proDOX, DOX, or Pd-NP with C16proDOX for 24 h, and then imaged by fluorescence microscopy (representative images shown in c) to evaluate subcellular drug accumulation based on endogenous anthracycline fluorescence (scale bar, 20 μm). Yellow lines (c) denote representative examples of how fluorescence intensity profiles were quantified from line-scans through cells (d), shown as means (thick line)±s.e.m. (shading; n>10), for hoechstand anthracycline fluorescence.

[5] = tested on: panel of 4 cancer cell lines; test: Cytotoxicity across a panel of cancer cell lines, 72 h; format: cell-based; conditions: prodrug alone, concentrations ≤10 μM
[6] = tested on: MC38 murine colon adenocarcinoma tumors; test: MC38 syngeneic tumor growth; format: in vivo, C57BL/6 mice; conditions: combined with Pd-NP
Procedure: (§1) Cell lines and animal models: All animal research was performed in accordance with guidelines from the Institutional Subcommittee on Research Animal Care. HT1080 xenografts were generated by 2 million cells implanted subcutaneously in flanks of 6-8 week old female nu/nu mice (Cox7/MGH) in 50 μl PBS. MC38 syngeneic tumors were formed by intradermal implantation of 2 million cells in 50 μl PBS, in the flanks of 7-12 week old female C57BL/6 mice (JAX), following previously described inoculation protocols.^33 Four blinded caliper measurements per tumor were used to measure tumor size according to the formula V=(width)^2(length)/2; animals were randomly assigned to treatment groups. Experiments build on prior imaging, biodistribution, and longitudinal tumor growth data that likewise guided determination of experimental sample sizes.^5, 30 Treatment began approximately 3 weeks post-implantation once tumors reached an average diameter of 5.5±1.8 mm in the HT1080 model (mean±std. dev.; n=72), and roughly 2 weeks post-implantation in the MC38 model once tumors reached an average diameter of 5.45±1.2 mm (mean±std. dev.; n=14). […] Blood chemistry readouts were measured from plasma collected in heparinized tubes by terminal cardiac puncture under vaporized isoflurane anesthesia, using the MGH Veterinary Clinical Pathology lab and the automated DriChem blood chemistry analyzer (Heska). […]

HT1080-EB3-mApple cells = test: EB3 microtubule comet imaging in live cells; format: cell-based, human; conditions: 24 h
Procedure: Microtubule imaging. EB3 tracking was performed using an FV1000 confocal laser scanning microscope on a 37° C. heated stage, with XLUMPLFLN 20× (NA 1.0) or LUMFLN 60× (NA 1.1) water-immersion objectives, 1-10× digital zoom, 559-nm diode laser, and BA575-620 emission filter (all Olympus America). […] EB3 tracks were automatically identified and analyzed from time-lapse datasets using u-track software,^35 with tuning of maximum gap number and minimum frame number across datasets to account for differences in image quality; ambiguous and spurious tracks and artifacts were excluded according to requirements for directional continuity (directional persistence as net displacement/path length>0.8) and movement (value>3 pixels). Speed was determined between frames in each track and averaged for each track by computing the mean of the middle 80% of between-frame values. Track overlay figures were produced using a custom python script. Averaged track speeds excluded outliers falling more than 1.5× the interquartile range for each biological replicate.

[7] = Body weight and blood chemistry of treated tumor-bearing animals; format: in vivo, mice; conditions: dual Pd-NP and C16proMMAE
Procedure: as §1

[8] = tested on: subcutaneous HT1080 xenograft tumors; test: HT1080 xenograft tumor growth; format: in vivo, nu/nu mice
Procedure: as §1

HT1080 cells = format: cell-based, human; conditions: for uptake of fluorescent PLGA-PEG NPs: 30 min pre-treatment, imaged 3 h later
Procedure: In vitro NP uptake imaging. To quantify subcellular localization of NPs in HT1080 cells, Rab7a-RFP and Lamp1-RFP fusion constructs were expressed using a commercial baculovirus platform (CellLight BacMam 2.0, Invitrogen), following manufacturing guidelines. Pharmacological modulation of NP uptake was performed using the following: staurosporine (1 μM; LC labs), latrunculin B (1 μM; Tocris), cytochalasin D (1 μM; Sigma), chloroquine (50 μM; Sigma), and ethylisopropyl amiloride EIPA (100 μM; Tocris). Cells were rinsed in fresh media immediately prior to imaging; only adherent cells were quantified. Chloroquine dose-response measurements were normalized to the C16proDOX control (rather than the chloroquine-free control), in order to compare relative effects on the potency of Pd-mediated C16proDOX activation itself 50 μM chloroquine alone caused a 15-30% decrease in cell viability.

[9] = Resazurin-based cytotoxicity assay, 72 h; conditions: human, HT1080 fibrosarcoma cancer cells
Procedure: as §2

[10] = without the C16 anchor; cited from earlier work
[11] = Homo sapiens, HT-1080, 72 h, read-out: IC50 (concentration at which 50% of cells died)

SMILES: C=CCOC(=O)N[C@H]1C[C@H](O[C@H]2C[C@](O)(C(=O)CO)Cc3c(O)c4c(c(O)c32)C(=O)c2c(OC)cccc2C4=O)O[C@@H](C)[C@H]1O [Alloc-DOX, reference compound]
- IC50 ([1]; read-out: IC50 (concentration at which 50% of cells died), HT1080, 72 h, without Pd-NP): 18000 nM
- turn-on capacity in cytotoxicity [1]: ~700 ×
- myelotoxicity ([2]; dual Pd-NP and Alloc-DOX strategy): did not

SMILES: C=CCOC(=O)Nc1ccc(C(OC(=O)Nc2ccc3c(C)cc(=O)oc3c2)C(=O)NCCOCCOCCOCCO)cc1 (stereo not drawn) [Alloc-SIL-PEG4-AMC, Alloc-SIL-AMC-dPEG4]
- uncaging rate relative to Alloc2R110 (calculated second order rate constants) [3]: approximately 1.5 fold

SMILES: C=CCOC(=O)Nc1ccc(C(OC(=O)N[C@H]2C[C@H](O[C@H]3C[C@](O)(C(=O)CO)Cc4c(O)c5c(c(O)c43)C(=O)c3c(OC)cccc3C5=O)O[C@@H](C)[C@H]2O)C(=O)NCCCCCCCCCCCCCCCC)cc1 (stereo partly drawn) [C16proDOX, Alloc-SIL-C16-Dox]
- release of the prodrug payload from the nanoformulation [4]: 20%±6%
- IC20, fold higher than Alloc-DOX ([1]; HT1080, without Pd-NP): roughly 15 fold
- IC20, fold higher than uncaged DOX ([1]; HT1080, without Pd-NP): ~1900 fold
- IC50 [1, 11]: > 50000 nM
- subcellular accumulation (HT1080 cancer cells; co-incubation with Pd-NP): detectable increase of drug in the nucleus compared to the cytoplasm
- subcellular accumulation (HT1080 cancer cells; without Pd-NP): accumulated primarily in cytoplasmic/perinuclear cellular compartments

SMILES: C=CCOC(=O)Nc1ccc(C(OC(=O)N(C)[C@H](C(=O)NC(C(=O)N(C)[C@@H]([C@@H](C)CC)[C@@H](CC(=O)N2CCC[C@H]2[C@H](OC)[C@@H](C)C(=O)N[C@H](C)[C@@H](O)c2ccccc2)OC)C(C)C)C(C)C)C(=O)NCC)cc1 (stereo partly drawn) [C16proMMAE, Alloc-SIL-C16-MMAE] (X1-[NMeV][ξV][Dil][Dolaproine]-X2)
- release of the prodrug payload from the nanoformulation [4]: < 10%
- impact on cell growth [5]: no detectable impact on cell growth
- tumor growth [6]: effective at slowing tumor growth
- tumor growth at 2 days following the 2nd round of treatment [6]: completely blocked
- enhanced cytotoxicity with sub-micromolar Pd-NP ([1]; HT1080, sub-micromolar Pd-NP): > 10 fold
- IC50 ([1]; Homo sapiens, HT-1080, 72 h, read-out: IC50 upon Pd-NP activation): 0.015 nM
- level of prodrug activation based on cytotoxicity ([1]; Pd-NP concentration 50 μM): > 90%
- concentration at which cytotoxic upon activation by Pd-NP ([1]; with Pd-NP): < 0.1 nM
- turn-on capacity in cytotoxicity [1]: > 70,000 ×
- microtubule comets (HT1080-EB3-mApple cells; 1 μM C16proMMAE combined with 35 μM Pd-NP): complete elimination of visible comets
- microtubule comets (prevalence and growth speed) (HT1080-EB3-mApple cells; individual treatment, 1 μM MMAE or C16proMMAE, 35 μM Pd-NP): not substantially perturbed
- drug-induced weight loss ([7]; HT1080 or MC38 tumor-bearing animals): did not show drug-induced weight loss
- blood chemistry analysis ([7]; MC38 tumor-bearing mice): no signs of drug-induced liver or kidney toxicity
- tumor growth at 2 days following the 2nd round of treatment ([8]; combined with Pd-NP): completely blocked
- reduction in prodrug dose required for controlling tumor growth in vivo ([8]; compared to Alloc-DOX): 50 fold

SMILES: CCN(c1nc(N)c(C(=O)N=C(N)N)nc1Cl)C(C)C [EIPA, 5-(N-Ethyl-N-isopropyl)amiloride]
- uptake of fluorescent PLGA-PEG NPs (HT1080 cells): acutely reduced the uptake of NPs

SMILES: CCN(CC)CCCC(C)Nc1ccnc2cc(Cl)ccc12 (stereo not drawn) [chloroquine, reference compound]
- impact on cytotoxicity of combined Pd-NP and C16proDOX treatment ([1]; HT1080, 50 μM chloroquine, 50 μM Pd-NP, 72 h): only modest impact
- cytotoxicity at 72 h, 50 μM [9]: 15 to 30%
- NP accumulation in vesicles (HT1080 cells; HT1080, 50 μM chloroquine co-treatment, 24 h): enhanced accumulation of NPs in distinctly large vesicles

SMILES: C=C1[C@@H](C)[C@H]2[C@H](Cc3ccccc3)NC(=O)[C@]23[C@H](OC(C)=O)/C=C/[C@@](C)(O)C(=O)[C@@H](C)C/C=C/[C@H]3[C@@H]1O [cytochalasin D]
- uptake of fluorescent PLGA-PEG NPs (HT1080 cells): acutely reduced the uptake of NPs

SMILES: COc1cccc2c1C(=O)c1c(O)c3c(c(O)c1C2=O)C[C@@](O)(C(=O)CO)C[C@@H]3O[C@H]1C[C@H](N)[C@H](O)[C@H](C)O1 [doxorubicin, reference compound]
- IC50 [1, 11]: 100 nM
- nano-encapsulation efficiency (earlier report) [10]: 22%
- myelotoxicity ([2]; solvent- and nano-formulations, equimolar doses): exhibited myelotoxicity
- subcellular accumulation (HT1080 cancer cells; without Pd-NP): primarily accumulates in the nuclei of cancer cells

SMILES: C/C1=C/C(=O)O[C@@H]2C[C@@H](CC[C@H](C)/C=C\C=C\CC1)O[C@@](O)([C@@H]1CSC(=O)N1)C2 [latrunculin A]
- uptake of fluorescent PLGA-PEG NPs (HT1080 cells): acutely reduced the uptake of NPs

SMILES: CN[C@@H]1C[C@H]2O[C@@](C)([C@@H]1OC)n1c3ccccc3c3c4c(c5c6ccccc6n2c5c31)C(=O)NC4 [staurosporine]
- uptake of fluorescent PLGA-PEG NPs (HT1080 cells): decreased NP accumulation

Source: patent US12636373B2, “Prodrugs with a tridentate self-immolative linker” (The General Hospital Corporation, priority 2018, dated 2026)
